According to patent EP0133407A1, “Acetylene derivatives having an enzyme-inhibiting activity, their preparation and their use as medicines” (Etablissement Public dit: CENTRE NATIONAL DE LA RECHERCHE …, priority 1983, dated 1985):

Tests used:
[1] = Acute toxicity (DL50) in mice; set-up: species or system souris swiss; conditions: mouse, in vivo, two independent measurements
Method: (§1) Les tests dont les résultats sont donnés ci-dessous ont été réalisés avec des solutions du composé 6a (sous forme de chlorhydrate). Dans ces tests, on a étudié l'activité vis à vis de la croissance tumorale (carcinome et mélanome) et la survie de souris swiss auxquelles ont été injectées des quantités variables de cellules d'ascites de Krebs.
Toxicité aigüe : La DL50 du composé 6a (chlorhydrate) déterminée sur ces souris par deux mesures indépendantes est de 60 mg/kg.

[2] = system: Cellules d'embryon de poulet; experiment: Transformation of chick embryo cells induced by Rous sarcoma virus; format: cell-based
Description: (§2) Le produit est efficace contre la transformation des cellules d'embryon de poulet induite par le virus du sarcome de ROUS.

[3] = system: mélanome DAU d'origine humaine; experiment: In vivo tumour growth: human melanoma DAU in nude mice; set-up: species or system souris nude; souris traitées présentant un retard dans le développement tumoral: unit not given here; conditions: 5.10^5 melanoma DAU cells; 2 x 15 mg/kg on day 1, 2 x 6 mg/kg days 2 to 7; versus untreated controls
Method: (§3) Deux types de tumeurs ont été utilisés : • - un carcinome de Lewis (sur souris swiss), • - un mélanome DAU d'origine humaine (sur souris nude).
Les souris ont reçu une injection de 5.10^5 cellules de mélanome DAU Celles traitées ont reçu : • - 2 x 15 mg/kg le premier jour, • - 2 x 6 mg/kg du deuxième au septième jour.

[4] = system: Fibroblastes humains MRC 5; experiment: Cell growth inhibition, normal cells: MRC 5 fibroblasts; format: cell-based
[5] = system: clone FAZA 967 de l'hépatome de rat REUBER H 35; experiment: Toxicity on hepatoma clone FAZA 967 (LDH, GOT, GPT assayed in the medium); format: cell-based
[6] = system: Cellules de rein de rat NRK B 77; experiment: Cell growth inhibition, transformed cells: NRK B 77; format: cell-based
Description: (§4) Les tableaux 1 et 2 ci-après donnent le résultat de ces tests qui portent sur trois types de cellules transformées. Les chiffres indiqués représentent le pourcentage d'inhibition de la croissance de cellules traitées par des doses de plus en plus fortes de composé 6a (chlorhydrate) par rapport à celles des mêmes cellules non traitées.

Hepatomes de rat = experiment: Cell growth inhibition, transformed cells: rat hepatomas; format: cell-based
Description: as §4

Cellules HeLa humaines = experiment: Cell growth inhibition, transformed cells: HeLa; format: cell-based
Description: as §4

NRK LA31 à 33° = experiment: Cell growth inhibition, transformed cells: NRK LA31 at 33°; format: cell-based, rat
Description: as §4

[7] = system: cellules de leucémie L1210; experiment: Survival of mice inoculated with leukaemia L1210 cells; format: in vivo, souris; conditions: 3.10^5 L1210 cells; 6 mg/kg for 7 days
Description: Une étude a aussi été faite sur des souris auxquelles avaient été inoculées 3.10^5 cellules de leucémie L1210.

virus du sarcome de ROUS = experiment: Replication of Rous sarcoma virus; format: cell-based
Description: as §2

[8] = system: Cellules de la membrane amniotique humaine; experiment: Cell growth inhibition / toxicity, normal cells: human amniotic membrane cells; format: cell-based
[9] = system: cellules de mélanomes humains M1 DOR; experiment: Complementary in vitro test, dead cells after four days of growth: melanoma M1 DOR; format: cell-based; conditions: untreated 24, 5760 min
[10] = system: cellules d'ascites de KREBS (carcinome); experiment: Survival of mice injected with Krebs ascites cells; format: in vivo, souris swiss; set-up: taux de survie: unit not given here
Description: as §1
Les résultats des tests ont été obtenus principalement à partir de souris' auxquelles ont été injectées des cellules d'ascites de KREBS (carcinome) dont l'origine a été décrite par G. KLEIN et E. KLEIN Cancer Research 1951-11-466.

Stability of solutions = format: physicochemical; conditions: concentrated solutions
Description: Il convient de préciser que les solutions concentrées du produit 6a sont instables. Le produit est conservé sous forme de solutions diluées, par exemple le chlorhydrate peut être conservé en solution aqueuse diluée.

carcinome de Lewis = experiment: In vivo tumour growth: Lewis carcinoma in mice; set-up: species or system souris swiss; conditions: 3.10^5 Lewis carcinoma cells; daily 6 mg/kg or 12 mg/kg
Description: as §3
Le test est effectué sur des souris auxquelles 3.10^5 cellules de carcinome de Lewis ont été inoculées.

[11] = system: Cellules d'embryon de poulet; experiment: Cell growth inhibition, normal cells: chick embryo cells; format: cell-based
[12] = system: cellules de mélanomes humains M3 DAU; experiment: Complementary in vitro test, dead cells after four days of growth: melanoma M3 DAU; format: cell-based; conditions: untreated 6, 5760 min
Description: as §4

cellules NRK (normales) = experiment: Growth inhibition in tissue culture, normal NRK cells; format: cell-based; conditions: 6a solutions made by the second method (example 2) compared with product of example 1
[13] = system: lignées de lymphomes de souris; experiment: In vivo activity against mouse lymphoma lines; conditions: certain mouse lymphoma lines
[14] = concentration 1,5.10^-3 (unit not given)
[15] = concentration 2.10^-3 (unit not given)
[16] = concentration 3.10^-3 (unit not given)
[17] = concentration 4.10^-3 (unit not given)
[18] = concentration 5.10^-3 (unit not given)

CC(C)(N)C#CC=O [composé 6a]
LD50 [1]: 60 mg/kg
efficacité contre la transformation des cellules induite par le virus du sarcome de ROUS [2]: efficace
retard dans le développement tumoral [3]: dizaine
souris traitées présentant un retard dans le développement tumoral [3]: 60
% d'inhibition de la croissance cellulaire ([4]; 1.10^-4 M): 0%
% d'inhibition de la croissance cellulaire ([4]; 2.10^-4 M): 0%
% d'inhibition de la croissance cellulaire ([4]; 4.10^-4 M): 0%
% d'inhibition de la croissance cellulaire ([4]; 5.10^-5 M): 0%
% d'inhibition de la croissance cellulaire ([4]; 6.10^-4 M): 18%
toxicité du produit, estimée par dosage dans le milieu des enzymes LDH, GOT et GPT [5]: aucune toxicité
% d'inhibition de la croissance cellulaire ([6]; 1.10^-4 M): 16%
% d'inhibition de la croissance cellulaire ([6]; 2.10^-4 M): 31%
% d'inhibition de la croissance cellulaire ([6]; 4.10^-4 M): 57%
% d'inhibition de la croissance cellulaire ([6]; 5.10^-5 M): 0%
inhibition de la croissance en culture de tissus ([6]; 6a solutions made by the second method (example 2) compared with product of example 1, NRK-B77 (transformées)): activité en tous points comparable à celle observée avec le produit de l'exemple 1
% d'inhibition de la croissance cellulaire ([6]; 6.10^-4 M): 79%
% d'inhibition de la croissance cellulaire (Hepatomes de rat; 2.10^-4 M): 50%
% d'inhibition de la croissance cellulaire (Hepatomes de rat; 6.10^-4 M): 60%
% d'inhibition de la croissance cellulaire (Cellules HeLa humaines; 1.10^-4 M): 18%
% d'inhibition de la croissance cellulaire (Cellules HeLa humaines; 2.10^-4 M): 36%
% d'inhibition de la croissance cellulaire (Cellules HeLa humaines; 4.10^-4 M): 78%
% d'inhibition de la croissance cellulaire (Cellules HeLa humaines; 5.10^-5 M): 0%
% d'inhibition de la croissance cellulaire (Cellules HeLa humaines; 6.10^-4 M): 91%
% d'inhibition de la croissance cellulaire (NRK LA31 à 33°; 1.10^-4 M): 0%
% d'inhibition de la croissance cellulaire (NRK LA31 à 33°; 2.10^-4 M): 11%
% d'inhibition de la croissance cellulaire (NRK LA31 à 33°; 4.10^-4 M): 63%
% d'inhibition de la croissance cellulaire (NRK LA31 à 33°; 5.10^-5 M): 0%
% d'inhibition de la croissance cellulaire (NRK LA31 à 33°; 6.10^-4 M): Mort
survie [7]: le même effet que dans le cas du carcinome
réplication du virus (virus du sarcome de ROUS): n'est pas inhibée
% d'inhibition de la croissance cellulaire ([8]; 6.10^-4 M): 0%
effet sur la croissance et sur la morphologie des cellules ([8]; concentrations de 5.10 et de 10^-4 mole-litre ^-1): aucun effet
% de cellules mortes après quatre jours de croissance [9, 14]: 21%
% de cellules mortes après quatre jours de croissance [9, 15]: 28%
% de cellules mortes après quatre jours de croissance [9, 16]: 24%
% de cellules mortes après quatre jours de croissance [9, 17]: 26%
% de cellules mortes après quatre jours de croissance [9, 18]: 23%
survie ([10]; 5.10^5 cells inoculated, 6 mg/kg for 7 days): provoque un retard dans la mort mais n'augmente pas le taux de survie
taux de survie ([10]; 5.10^5 cells inoculated, 6 mg/kg, treatment of 21 days): ≤ 90
survie ([10]; 5.10^5 cells, 2 x 15 mg/kg on day 1 then 2 x 6 mg/kg the 6 following days, compared with 21-day treatment): Le même effet
survie ([10]; 10 cellules (so in the source), 2 x 15 mg/kg on day 1 then 2 x 6 mg/kg the 6 following days): encore suffisants
survie ([10]; inoculation of 5.10^6 cells, 2 x 15 mg/kg on day 1 then 2 x 6 mg/kg the 6 following days): efficacité est moindre
survie ([10]; inoculation of 10 cellules (so in the source), 6 mg/kg daily for 7 days): guérison complète jusque 6 mois
stabilité des solutions (Stability of solutions): instables
croissance tumorale (carcinome de Lewis): net ralentissement de la croissance tumorale
% d'inhibition de la croissance cellulaire ([11]; 1.10^-4 M): 0%
% d'inhibition de la croissance cellulaire ([11]; 2.10^-4 M): 0%
% d'inhibition de la croissance cellulaire ([11]; 4.10^-4 M): 10%
% d'inhibition de la croissance cellulaire ([11]; 5.10^-5 M): 0%
% d'inhibition de la croissance cellulaire ([11]; 6.10^-4 M): 12%
% de cellules mortes après quatre jours de croissance [12, 14]: 24%
% de cellules mortes après quatre jours de croissance [12, 15]: 47%
% de cellules mortes après quatre jours de croissance [12, 16]: 92%
% de cellules mortes après quatre jours de croissance [12, 17]: 98%
% de cellules mortes après quatre jours de croissance [12, 18]: 98%
inhibition de la croissance en culture de tissus (cellules NRK (normales)): activité en tous points comparable à celle observée avec le produit de l'exemple 1

CCOC(C#CC(C)(C)N)OCC [composé 9a]
activité in vivo [13]: actif sélectivement
